Data published in patent US8329686B2, “Isatin analogues and uses therefor” (Washington University, priority 2006, dated 2012).
Read-outs that look alike come from different tables or passages of the source. Each block holds one compound with its values, some of them ahead of it.

Assays:
caspase-3 = target: T1, caspase-3 (Homo sapiens, UniProt P42574); assay: Enzyme inhibition assay, caspase 3 (fluorogenic Ac-DEVD-AMC); assay type: biochemical
T1 construct: purchased Sigma-Aldrich (St. Louis, Mo.)
T1 sequence (P42574 29-175 limits assumed): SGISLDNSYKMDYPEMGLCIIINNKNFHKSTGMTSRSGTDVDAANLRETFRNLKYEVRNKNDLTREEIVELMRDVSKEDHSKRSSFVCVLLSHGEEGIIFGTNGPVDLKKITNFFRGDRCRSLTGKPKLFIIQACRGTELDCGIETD
T1 sequence (P42574 176-277 limits assumed): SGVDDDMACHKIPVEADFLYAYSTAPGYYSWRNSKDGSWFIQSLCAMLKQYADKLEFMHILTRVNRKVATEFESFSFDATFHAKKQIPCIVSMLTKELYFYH

caspase 7 = target: T2, caspase 7 (Homo sapiens, UniProt P55210); assay: Enzyme inhibition assay, caspase 7 (fluorogenic Ac-DEVD-AMC); assay type: biochemical
T2 construct: purchased Sigma-Aldrich (St. Louis, Mo.)
T2 sequence (P55210 24-198 limits assumed): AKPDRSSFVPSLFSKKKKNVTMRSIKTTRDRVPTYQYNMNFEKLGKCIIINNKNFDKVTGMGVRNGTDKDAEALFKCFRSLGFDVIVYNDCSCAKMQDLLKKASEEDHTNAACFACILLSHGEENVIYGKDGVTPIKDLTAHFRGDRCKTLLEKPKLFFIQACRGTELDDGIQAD
T2 sequence (P55210 207-303 limits assumed): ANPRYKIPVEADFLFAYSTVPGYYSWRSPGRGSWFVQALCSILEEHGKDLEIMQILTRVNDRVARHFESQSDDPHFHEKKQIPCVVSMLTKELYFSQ

caspase 6 = target: T3, caspase 6 (Homo sapiens, UniProt P55212); assay: Enzyme inhibition assay, caspase 6 (fluorogenic Ac-VEID-AMC); assay type: biochemical
T3 construct: purchased Sigma-Aldrich (St. Louis, Mo.)
T3 sequence (P55212 24-179 limits assumed): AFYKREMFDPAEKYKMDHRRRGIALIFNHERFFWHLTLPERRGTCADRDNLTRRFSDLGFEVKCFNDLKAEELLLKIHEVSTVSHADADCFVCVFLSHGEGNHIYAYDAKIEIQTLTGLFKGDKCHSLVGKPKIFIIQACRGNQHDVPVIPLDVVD
T3 sequence (P55212 194-293 limits assumed): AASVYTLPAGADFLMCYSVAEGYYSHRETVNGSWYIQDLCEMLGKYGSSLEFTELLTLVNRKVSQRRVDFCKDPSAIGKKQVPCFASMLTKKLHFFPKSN

caspase 1 = target: T4, caspase 1 (Homo sapiens, UniProt P29466); assay: Enzyme inhibition assay, caspase 1 (fluorogenic Ac-YVAD-AMC); assay type: biochemical
T4 construct: purchased BIOMOL Research Laboratories (Plymouth Meeting, Pa.)
T4 sequence (P29466 120-297 limits assumed): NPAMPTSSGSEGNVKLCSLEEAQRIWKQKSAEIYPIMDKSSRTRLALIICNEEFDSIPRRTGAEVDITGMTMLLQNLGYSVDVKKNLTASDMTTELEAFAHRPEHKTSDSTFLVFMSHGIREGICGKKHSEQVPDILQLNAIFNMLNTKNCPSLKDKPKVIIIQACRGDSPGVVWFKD
T4 sequence (P29466 317-404 limits assumed): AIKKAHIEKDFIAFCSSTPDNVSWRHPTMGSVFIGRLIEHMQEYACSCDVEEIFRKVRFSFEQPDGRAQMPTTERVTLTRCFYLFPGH

caspase 8 = target: T5, caspase 8 (Homo sapiens, UniProt Q14790); assay: Enzyme inhibition assay, caspase 8 (fluorogenic Ac-IETD-AMC); assay type: biochemical
T5 construct: purchased Sigma-Aldrich (St. Louis, Mo.)

[1] = Table 4, read-out: IC50 (nM) caspase-3
[2] = Table 4, read-out: IC50 (nM) caspase-7
[3] = Table 5, read-out: IC50 (nM) caspase-3
[4] = Table 5, read-out: IC50 (nM) caspase-7
[5] = Table 2, read-out: IC50 (nM) Caspase 6
[6] = Table 2, read-out: IC50 (nM) Caspase 1
[7] = Table 2, read-out: IC50 (nM) Caspase 3
[8] = Table 2, read-out: IC50 (nM) Caspase 8
[9] = Table 2, read-out: IC50 (nM) Caspase 7
[10] = Table 1, read-out: IC50 (nM) Caspase 6
[11] = Table 1, read-out: IC50 (nM) Caspase 1
[12] = Table 1, read-out: IC50 (nM) Caspase 3
[13] = Table 1, read-out: IC50 (nM) Caspase 8
[14] = Table 1, read-out: IC50 (nM) Caspase 7

T5 sequence (Q14790 217-374 limits assumed): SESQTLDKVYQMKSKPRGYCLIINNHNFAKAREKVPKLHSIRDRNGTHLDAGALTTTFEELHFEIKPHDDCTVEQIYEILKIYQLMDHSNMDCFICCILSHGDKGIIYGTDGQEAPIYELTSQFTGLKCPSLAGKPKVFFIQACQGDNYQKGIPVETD
T5 sequence (Q14790 385-479 limits assumed): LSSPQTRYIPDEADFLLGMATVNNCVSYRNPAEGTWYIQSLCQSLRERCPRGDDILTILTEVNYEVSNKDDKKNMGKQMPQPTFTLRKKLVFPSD

Compound: O=C1C(=O)N(Cc2ccccc2)c2ccc(S(=O)(=O)N3CCC[C@H]3COc3ccccc3)cc21 [Compound 2, (S)-1-Benzyl-5-(2-phenoxymethyl-pyrrolidine-1-sulfonyl)-1H-indole-2,3-dione]
- melting point: 97.2 to 99.1 °C
- IC50 (caspase-3; [1]): 12.2 ± 0.3 nM
- IC50 (caspase 7; [2]): 28 ± 0.7 nM

Compound: O=C1Nc2ccc(S(=O)(=O)N3CC[C@H]3COc3ccccc3)cc2C1=O [Compound 17, (S)-5-(2-Phenoxymethyl-azetidine-1-sulfonyl)-1H-indole-2,3-dione]
- melting point: 173.2 to 174.5 °C
- IC50 (caspase-3; [3]): 287 ± 24.7 nM
- IC50 (caspase 7; [4]): 1350 ± 141 nM
- fold less potent for inhibiting caspase-7 (caspase 7; relative to the corresponding pyrrolidine analogue 10): > 2 fold

Compound: N#CC(C#N)=C1C(=O)N(Cc2ccc(OCCF)cc2)c2ccc(S(=O)(=O)N3CCC[C@H]3COc3ccccc3)cc21 [WC-II-92]
- IC50 (caspase 6; [5]): 927 ± 35 nM
- IC50 (caspase 1; [6]): 10000 nM
- IC50 (caspase-3; [7]): 18.3 ± 0.4 nM
- IC50 (caspase 8; [8]): > 50000 nM
- IC50 (caspase 7; [9]): 96.3 ± 20.7 nM

Compound: O=C1C(=O)N(Cc2ccc(OCCF)cc2)c2ccc(S(=O)(=O)N3CCC[C@H]3COc3cccnc3)cc21 [WC-II-100]
- IC50 (caspase 6; [10]): 6900 nM
- IC50 (caspase 1; [11]): > 20000 nM
- IC50 (caspase-3; [12]): 3.1 ± 0.4 nM
- IC50 (caspase 8; [13]): > 50000 nM
- IC50 (caspase 7; [14]): 11.3 ± 0.6 nM

Compound: O=C1C(=O)N(Cc2ccc(OCCF)cc2)c2ccc(S(=O)(=O)N3CC[C@H]3COc3cccnc3)cc21 [WC-II-101]
- IC50 (caspase 6; [10]): 8700 nM
- IC50 (caspase 1; [11]): > 10000 nM
- IC50 (caspase-3; [12]): 3.6 ± 0.5 nM
- IC50 (caspase 8; [13]): > 50000 nM
- IC50 (caspase 7; [14]): 17.6 ± 0.4 nM

Compound: N#CC(C#N)=C1C(=O)N(Cc2ccc(OCCF)cc2)c2ccc(S(=O)(=O)N3CCC[C@H]3COc3cccnc3)cc21 [WC-II-103]
- IC50 (caspase 6; [5]): 770 ± 119 nM
- IC50 (caspase 1; [6]): 3500 nM
- IC50 (caspase-3; [7]): 7.5 ± 0.2 nM
- IC50 (caspase 8; [8]): > 50000 nM
- IC50 (caspase 7; [9]): 26 ± 5.2 nM

Compound: N#CC(C#N)=C1C(=O)N(Cc2ccc(OCCF)cc2)c2ccc(S(=O)(=O)N3CC[C@H]3COc3cccnc3)cc21 [WC-II-104]
- IC50 (caspase 6; [5]): 580 ± 55 nM
- IC50 (caspase 1; [6]): 2900 nM
- IC50 (caspase-3; [7]): 7.1 ± 0.6 nM
- IC50 (caspase 8; [8]): > 50000 nM
- IC50 (caspase 7; [9]): 22.7 ± 3.1 nM

Second part, the compound after the results:

- melting point: 74.5 to 75.4 °C
Compound: O=C1C(=O)N(Cc2ccc(F)cc2)c2ccc(S(=O)(=O)N3CCC[C@H]3COc3ccccc3)cc21 [Compound 11c, (S)-1-(4-Fluorobenzyl)-5-(2-phenoxymethyl-pyrrolidine-1-sulfonyl)-1H-indole-2,3-dione]

- melting point: 175.4 to 176.8 °C
Compound: CSc1ccc(CN2C(=O)C(=O)c3cc(S(=O)(=O)N4CCC[C@H]4COc4ccccc4)ccc32)cc1 [Compound 11d, (S)-1-(4-Methylthiobenzyl)-5-(2-phenoxymethyl-pyrrolidine-1-sulfonyl)-1H-indole-2,3-dione]

- melting point: 180.1 to 181.9 °C
- IC50 (caspase-3; [1]): 21.3 ± 3.2 nM
- IC50 (caspase 7; [2]): 58 ± 2.8 nM
Compound: O=C1C(=O)N(Cc2ccnc(F)c2)c2ccc(S(=O)(=O)N3CCC[C@H]3COc3ccccc3)cc21 [Compound 11h, (S)-1-(2-Fluoro-pyridin-4-yl-methyl)-5-(2-phenoxymethyl-pyrrolidine-1-sulfonyl)-1H-indole-2,3-dione]

- melting point: 128.6 to 129.4 °C
- IC50 (caspase-3; [1]): 9.1 ± 1.8 nM
- IC50 (caspase 7; [2]): 22.2 ± 4 nM
Compound: O=C1C(=O)N(Cc2cccc(F)n2)c2ccc(S(=O)(=O)N3CCC[C@H]3COc3ccccc3)cc21 [Compound 11i, (S)-1-(6-Fluoro-pyridin-2-yl-methyl)-5-(2-phenoxymethyl-pyrrolidine-1-sulfonyl)-1H-indole-2,3-dione]

- melting point: 173.5 to 174.9 °C
- IC50 (caspase-3; [3]): 91.7 ± 7.6 nM
- IC50 (caspase 7; [4]): 362.5 ± 3.5 nM
Compound: CN1C(=O)C(=O)c2cc(S(=O)(=O)N3CC[C@H]3COc3ccccc3)ccc21 [Compound 18a, (S)-1-Methyl-5-(2-phenoxymethyl-azetidine-1-sulfonyl)-1H-indole-2,3-dione]

- melting point: 157.1 to 158.9 °C
- IC50 (caspase-3; [3]): 9.7 ± 1.6 nM
- IC50 (caspase 7; [4]): 29.5 ± 4.9 nM
Compound: O=C1C(=O)N(Cc2ccccc2)c2ccc(S(=O)(=O)N3CC[C@H]3COc3ccccc3)cc21 [Compound 18b, (S)-1-Benzyl-5-(2-phenoxymethyl-azetidine-1-sulfonyl)-1H-indole-2,3-dione]

- melting point: 159.8 to 161.5 °C
- IC50 (caspase-3; [3]): 8.4 ± 1.2 nM
- IC50 (caspase 7; [4]): 23.2 ± 3 nM
Compound: COc1ccc(CN2C(=O)C(=O)c3cc(S(=O)(=O)N4CC[C@H]4COc4ccccc4)ccc32)cc1 [Compound 18c, (S)-1-(4-Methoxybenzyl)-5-(2-phenoxymethyl-azetidine-1-sulfonyl)-1H-indole-2,3-dione]

- melting point: 167.6 to 169.2 °C
- IC50 (caspase-3; [3]): 11.3 ± 1.2 nM
- IC50 (caspase 7; [4]): 26.7 ± 7.2 nM
Compound: CSc1ccc(CN2C(=O)C(=O)c3cc(S(=O)(=O)N4CC[C@H]4COc4ccccc4)ccc32)cc1 [Compound 18d, (S)-1-(4-Methylthiobenzyl)-5-(2-phenoxymethyl-azetidine-1-sulfonyl)-1H-indole-2,3-dione]

- melting point: 164.6 to 165.7 °C
- IC50 (caspase-3; [3]): 8.8 ± 1.4 nM
- IC50 (caspase 7; [4]): 21 ± 5.6 nM
Compound: O=C1C(=O)N(Cc2ccc(F)cc2)c2ccc(S(=O)(=O)N3CC[C@H]3COc3ccccc3)cc21 [Compound 18e, (S)-1-(4-Fluorobenzyl)-5-(2-phenoxymethyl-azetidine-1-sulfonyl)-1H-indole-2,3-dione]

- melting point: 147.1 to 148 °C
- IC50 (caspase-3; [3]): 9.4 ± 0.3 nM
- IC50 (caspase 7; [4]): 26 ± 5.2 nM
Compound: O=C1C(=O)N(Cc2ccccc2F)c2ccc(S(=O)(=O)N3CC[C@H]3COc3ccccc3)cc21 [Compound 18f, (S)-1-(2-Fluorobenzyl)-5-(2-phenoxymethyl-azetidine-1-sulfonyl)-1H-indole-2,3-dione]

- melting point: 176.8 to 178.3 °C
- IC50 (caspase-3; [3]): 10.9 ± 1.4 nM
- IC50 (caspase 7; [4]): 17 ± 3 nM
Compound: O=C1C(=O)N(Cc2ccc(F)nc2)c2ccc(S(=O)(=O)N3CC[C@H]3COc3ccccc3)cc21 [Compound 18g, (S)-1-(6-Fluoropyridin-3-ylmethyl)-5-(2-phenoxymethylazetidine-1-sulfonyl)-1H-indole-2,3-dione]

- melting point: 159 to 159.9 °C
- IC50 (caspase-3; [3]): 29.2 ± 5.2 nM
- IC50 (caspase 7; [4]): 135 ± 7.1 nM
Compound: O=C1C(=O)N(Cc2ccnc(F)c2)c2ccc(S(=O)(=O)N3CC[C@H]3COc3ccccc3)cc21 [Compound 18h, (S)-1-(2-Fluoropyridin-4-yl-methyl)-5-(2-phenoxymethylazetidine-1-sulfonyl)-1H-indole-2,3-dione]

- melting point: 144.7 to 146.1 °C
- IC50 (caspase-3; [3]): 5.8 ± 1 nM
- IC50 (caspase 7; [4]): 22.7 ± 3.1 nM
Compound: O=C1C(=O)N(Cc2cccc(F)n2)c2ccc(S(=O)(=O)N3CC[C@H]3COc3ccccc3)cc21 [Compound 18i, (S)-1-(6-Fluoropyridin-2-yl-methyl)-5-(2-phenoxymethylazetidine-1-sulfonyl)-1H-indole-2,3-dione]

- IC50 (caspase 6; Table 4, read-out: IC50 (nM) caspase-6): > 5000 nM
- IC50 (caspase 1; Table 4, read-out: IC50 (nM) caspase-1): > 10000 nM
- IC50 (caspase-3; [1]): 14.5 ± 1.6 nM
- IC50 (caspase 8; Table 4, read-out: IC50 (nM) caspase-8): > 50000 nM
- IC50 (caspase 7; [2]): 21.8 ± 3.5 nM
Compound: (S)-1-(4-Methoxybenzyl)-5-(2-phenoxymethyl-pyrrolidine-1-sulfonyl)-1H-indole-2,3-dione [Compound 11b]
